According to patent publication US20140309295A1, “ANTIEPILEPTIC, HYPOCHOLESTEROLEMIC AND NEUROPROTECTIVE COMPOUND” (NEURON BIOPHARMA, S.A., priority 2009, published 2014):

What was measured:
[1] = PAMPA, 18 h, 100 μM, pH 7.4
caspase 3/7 = assay: Inhibition of camptothecin-induced activation of caspase 3/7 in SK-N-MC cells; type: cell-based, human; settings: 50 μM CPT, 6 h
Description: The assay was performed on human neuroblastoma SK-N-MC cells in culture from the American Type Culture Collection (ATCC), in all cases strict rules of sterility were followed and the manipulation was performed in class II biological safety cabinets following European standard EN 12469. The cells were maintained in the following culture medium: Minimum Essential Medium Eagle (MEM) supplemented with 1 mM sodium pyruvate, 2 mM L-glutamine, 0.1 mM non-essential amino acids, 0.05 mg/ml gentamicin and 10% fetal bovine serum. The induction of apoptosis on the cells in culture was performed by means of incubation with camptothecin (CPT), which triggers cell apoptosis activation. The apoptosis was determined by means of the measurement of the activation of effector caspases, caspase 3 or caspase 7, for which a kit for the fluorometric detection of active caspase 3/7 (Apo-ONE® Homogeneous Caspase-3/7, Promega) was used. The active caspase 3 or 7 of the cells cause the rupture of a substrate, which leads to fluorescence emission, which is read by means of a fluorometer. The effect of the pretreatment of compound NST0037 at 10 and 40 μM on the activation of caspase 3/7 caused by 50 μM of camptothecin (CPT) in the SK-N-MC cells was thus analyzed. These cells, not exceeding 15 passages, were seeded on 96-well plates treated for adherent cells with a cell concentration of 5×10^4 cells/well, 3 wells of the plate were seeded for each condition of the assay. After 24 hours of cell incubation at 37° C. and 5% CO2, the pretreatment with NST0037 at 10 and 40 μM was performed. […] On the following day, fluorescence was measured (499/521 nm, […]).

[2] = tested on: human neuroblastoma SK-N-MC cells; assay: Inhibition of camptothecin-induced apoptosis by flow cytometry (sub-G1); type: cell-based; settings: 50 μM camptothecin
Description: The assay was performed on human neuroblastoma SK-N-MC cells in culture from the American Type Culture Collection (ATCC), in all cases strict rules of sterility were followed and the manipulation was performed in class II biological safety cabinets following European standard EN 12469. The cells were maintained in the following culture medium: Minimum Essential Medium Eagle (MEM) supplemented with 1 mM sodium pyruvate, 2 mM L-glutamine, 0.1 mM non-essential amino acids, 0.05 mg/ml gentamicin and 10% fetal bovine serum.
The inhibition caused by compound NST0037 against apoptosis (programmed cell death) caused by treatment with camptothecin which inhibits the enzyme Topoisomerase I, which prevents DNA duplication and triggers apoptotic cell death, was analyzed. These cells, not exceeding 15 passages, were seeded on 6-well plates treated for adherent cells with a cell concentration of 8×10^5 cells/well and 7×10^5 cells/well for the assay with pretreatment; 2 wells of the plate were seeded for each condition of the assay.
After 24 hours of cell incubation at 37° C. and 5% CO2, the cell treatments were performed with 2 ml of total volume for the following conditions: • Control: culture medium (medium) • Camptothecin: medium plus camptothecin 50 μM. • Camptothecin plus Z-VAD-fmk: medium plus 50 μM camptothecin plus 50 μM Z-VAD-fmk, as positive inhibition control. • Camptothecin plus NST0037: medium plus 50 μM camptothecin plus NST0037 at 10, 40 or 100 μM.
In the assay with pretreatment, the cells were previously treated with 40 μM of NST0037, 100 μM of mevalonate or both together for 24 hours and then they were treated with 50 μM camptothecin, the rest of the procedure was similar to the assay without pretreatment.
The cells were incubated (at 37° C. and 5% CO2) with these treatments for 6 hours, after which time they were collected along with their culture medium and centrifuged at 300×g for 5 minutes. The medium was removed, a washing was performed with PBS and the cells were fixed for 2 minutes with 500 μl of 70% ethanol at −20° C. Once fixed, they were centrifuged at 400×g for 5 minutes, washed with PBS and 0.05 mg/ml propidium iodide, diluted in cycling buffer (0.1% sodium citrate, 0.3% Nonidet P-40 and 0.02 mg/ml RNase) were added and they were incubated for 1 hour at 37° C. After this time they were analyzed by flow cytometry, comparing the fluorescence of propidium iodide against the amount of DNA. The percentage of apoptosis was measured on the sub-G1 region of each of the conditions.

adult zebrafish = assay: Lethality by constant exposure in water (4 days) in adult zebrafish (OECD 203); type: in vivo; settings: for histopathology: ovary / Mortality (dead animals/total): 4 days
Description: (§1) The object of this assay is to determine the acute lethal toxicity of a substance on freshwater fish. Acute toxicity is the distinguishable adverse effect induced in an organism as a result of the exposure to a given substance for a short time period (days).
(§2) The deaths of the animals under study during the entire time of the assay were recorded as a toxicity parameter.
(§3) To that end, the fish that survived the treatment were sacrificed at 4 days post-treatment (previously anesthetized) and the samples (whole fish) were included in paraffin. The hematoxylin-eosin staining was subsequently performed in order to conduct the histopathological studies, obtaining a minimum of 6 longitudinal sections per animal, for the purpose of collecting different study areas of the same organ. The following organs were studied: brain, kidney, pancreas, intestine, eye, gills, ovary, testicle, muscle and liver.

[3] = as above; type: in vivo; settings: zebrafish, in vivo; 4 days of continuous treatment in water
Description: as §1, §2, §3

For `CCC(CC)C(=O)O[C@H]1C[C@@H](C)C=C2C=C[C@H](C)[C@H](CC[C@@H]3C[C@@H](O)CC(=O)O3)[C@H]21` [NST0037, (1S,2S,6R,8S,8aR)-1,2,6,7,8,8a-hexahydro-3,7-dimethyl-8-[2-[(2R,4R)-tetrahydro-4-hydroxy-6-oxo-2H-pyran-2-yl]ethyl]-1-naphthalenyl-2-ethyl-butyrate], the “% BBB Passage” value [1] was 22.5 ± 5.5%, the “inhibition of caspase 3/7 with respect to camptothecin” value (caspase 3/7; pretreatment 10 μM NST0037) was 26% and the “inhibition of caspase 3/7 with respect to camptothecin” value (caspase 3/7; pretreatment 40 μM NST0037) was 33%. For the same molecule, the “maximum protection (inhibition of apoptosis caused by camptothecin)” value ([2]; 40 and 100 μM NST0037, 6 h, no pretreatment) was 18%, the “percentage of protection (inhibition of apoptosis) with pretreatment” value ([2]; 24 h pretreatment with 40 μM NST0037) was “up to 45%” and the “histopathology: ovary” value (adult zebrafish; 30 mg/kg) was “not being observed”. For the same molecule, the “histopathology: ovary” value (adult zebrafish; 100 mg/Kg) was “presented ovarian damage”, the “Mortality (dead animals/total)” value (adult zebrafish; Dose 1 mg/kg) was 0/7 and the “Mortality (dead animals/total)” value (adult zebrafish; Dose 3.2 mg/kg) was 0/7. The “Mortality (dead animals/total)” value (adult zebrafish; Dose 10 mg/kg) was 0/7, the “Mortality (dead animals/total)” value (adult zebrafish; Dose 32 mg/kg) was 0/7 and the “Mortality (dead animals/total)” value (adult zebrafish; Dose 100 mg/kg) was 1/7. For the same molecule, the percentage of mortality (adult zebrafish; day 4 post-treatment (100 mg/kg group)) was 14% and the LD50 at 4 days [3] was over 100 mg/kg.
